Laboratory results published in the supplement of paper PMC10307832.

Assays:
Assay in all cases: relative viability (nuclei count vs DMSO), 5 days (fraction); higher = more cells survive
NCI-H647 = tested on: NCI-H647
Summary of the method: (§1)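 For relative viability, nuclei counts in treated wells were divided by those in vehicle wells. Lung cancer cell lines had been pin-tool dosed in 1536-well plates the day after seeding and cultured for 5 days, then fixed and stained in one step (final 0.05% Triton X-100, 1% formaldehyde, 1 ug/ml Hoechst) and imaged at 4×. Doses were one drug alone or a fixed anchor-drug dose plus five library-drug doses (not always all listed) in √10 steps, and values are duplicate-plate medians.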

HOP-62 = tested on: HOP-62
Summary of the method: as §1

NCI-H1915 = tested on: NCI-H1915
Summary of the method: as §1

LCLC-97TM1 = tested on: LCLC-97TM1
Summary of the method: as §1

NCI-H2023 = tested on: NCI-H2023
Summary of the method: as §1

SW 1573 = tested on: SW 1573
Summary of the method: as §1

NCI-H1993 = tested on: NCI-H1993
Summary of the method: as §1

NCI-H2347 = tested on: NCI-H2347
Summary of the method: as §1

NCI-H2126 = tested on: NCI-H2126
Summary of the method: as §1

SK-LU-1 = tested on: SK-LU-1
Summary of the method: as §1

NCI-H727 = tested on: NCI-H727
Summary of the method: as §1

Structure (SMILES): NC(=O)Nc1cc(-c2cccc(F)c2)sc1C(=O)N[C@H]1CCCNC1 [AZD7762] + O=C(c1cc(Cc2n[nH]c(=O)c3ccccc23)ccc1F)N1CCN(C(=O)C2CC2)CC1 [Olaparib] (partner 8 µM)
- relative viability (NCI-H647; first compound 0.01 µM): 0.612
- relative viability (NCI-H647; first compound 0.03162 µM): 0.494
- relative viability (NCI-H647; first compound 0.1 µM): 0.238
- relative viability (NCI-H647; first compound 0.3162 µM): 0.0816
- relative viability (NCI-H647; first compound 1 µM): 0.0532
- relative viability (HOP-62; first compound 0.01 µM): 0.541
- relative viability (HOP-62; first compound 0.03162 µM): 0.239
- relative viability (HOP-62; first compound 0.1 µM): 0.313
- relative viability (HOP-62; first compound 0.3162 µM): 0.297
- relative viability (HOP-62; first compound 1 µM): 0.136
- relative viability (NCI-H1915; first compound 0.01 µM): 0.275
- relative viability (NCI-H1915; first compound 0.03162 µM): 0.308
- relative viability (NCI-H1915; first compound 0.1 µM): 0.272
- relative viability (NCI-H1915; first compound 0.3162 µM): 0.209
- relative viability (NCI-H1915; first compound 1 µM): 0.189
- relative viability (LCLC-97TM1; first compound 0.01 µM): 0.493
- relative viability (LCLC-97TM1; first compound 0.03162 µM): 0.523
- relative viability (LCLC-97TM1; first compound 0.1 µM): 0.438
- relative viability (LCLC-97TM1; first compound 0.3162 µM): 0.552
- relative viability (LCLC-97TM1; first compound 1 µM): 0.198
- relative viability (NCI-H2023; first compound 0.01 µM): 0.463
- relative viability (NCI-H2023; first compound 0.03162 µM): 0.323
- relative viability (NCI-H2023; first compound 0.1 µM): 0.171
- relative viability (NCI-H2023; first compound 0.3162 µM): 0.111
- relative viability (NCI-H2023; first compound 1 µM): 0.0963
- relative viability (SW 1573; first compound 0.01 µM): 0.453
- relative viability (SW 1573; first compound 0.03162 µM): 0.526
- relative viability (SW 1573; first compound 0.1 µM): 0.403
- relative viability (SW 1573; first compound 0.3162 µM): 0.408
- relative viability (SW 1573; first compound 1 µM): 0.221
- relative viability (NCI-H1993; first compound 0.01 µM): 1.18
- relative viability (NCI-H1993; first compound 0.03162 µM): 1.03
- relative viability (NCI-H1993; first compound 0.1 µM): 1.12
- relative viability (NCI-H1993; first compound 0.3162 µM): 1.42
- relative viability (NCI-H1993; first compound 1 µM): 0.922
- relative viability (NCI-H2347; first compound 0.01 µM): 0.612
- relative viability (NCI-H2347; first compound 0.03162 µM): 0.656
- relative viability (NCI-H2347; first compound 0.1 µM): 0.78
- relative viability (NCI-H2347; first compound 0.3162 µM): 0.693
- relative viability (NCI-H2347; first compound 1 µM): 0.544
- relative viability (NCI-H2126; first compound 0.01 µM): 0.948
- relative viability (NCI-H2126; first compound 0.03162 µM): 0.982
- relative viability (NCI-H2126; first compound 0.1 µM): 0.966
- relative viability (NCI-H2126; first compound 0.3162 µM): 0.941
- relative viability (NCI-H2126; first compound 1 µM): 0.885
- relative viability (SK-LU-1; first compound 0.01 µM): 0.477
- relative viability (SK-LU-1; first compound 0.03162 µM): 0.389
- relative viability (SK-LU-1; first compound 0.1 µM): 0.306
- relative viability (SK-LU-1; first compound 0.3162 µM): 0.244
- relative viability (SK-LU-1; first compound 1 µM): 0.186
- relative viability (NCI-H727; first compound 0.01 µM): 0.735
- relative viability (NCI-H727; first compound 0.03162 µM): 0.723
- relative viability (NCI-H727; first compound 0.1 µM): 0.931
- relative viability (NCI-H727; first compound 0.3162 µM): 0.717
- relative viability (NCI-H727; first compound 1 µM): 0.543
